Legend:
Conditions in all cases: exposure time: 72 h
E13 [1] = patient-derived glioblastoma stem cells of classical subtype; experiment: surviving fraction (nuclei count normalised to DMSO); higher = more cells surviving (less toxic)
E21 [2] = patient-derived glioblastoma stem cells of mesenchymal subtype; experiment: as above
E28 [3] = patient-derived glioblastoma stem cells of classical subtype; experiment: as above
E31 [4] = patient-derived glioblastoma stem cells of proneural subtype; experiment: as above
E34 [5] = patient-derived glioblastoma stem cells of proneural subtype; experiment: as above
E57 [6] = patient-derived glioblastoma stem cells of mesenchymal subtype; experiment: as above
FT3469 [7] = normal neural stem cell line; experiment: as above
E13 [8] = experiment: phenotypic distance (Euclidean, principal components) from DMSO controls (arbitrary units); higher = stronger morphological change
E21 [9] = experiment: as above
E28 [10] = experiment: as above
E31 [11] = experiment: as above
E34 [12] = experiment: as above
E57 [13] = experiment: as above
FT3469 [14] = experiment: as above
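For phenotypic distance (Euclidean, principal components) from DMSO controls in this document: cell Painting imaging in 384-well plates, CellProfiler features reduced to at least 20 principal components, Euclidean distance versus same-plate DMSO vehicle wells (0.1% v/v), median over six images per well.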
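For surviving fraction (nuclei count normalised to DMSO) in this document: nuclei counted by high-content imaging of Hoechst-stained cells in laminin-coated 384-well plates, relative to 0.1% DMSO vehicle wells, with staurosporine as cell-death control.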

CC(C)C(=O)OCC(=O)[C@@]12O[C@H](C3CCCCC3)O[C@@H]1C[C@H]1[C@@H]3CCC4=CC(=O)C=C[C@]4(C)[C@H]3[C@@H](O)C[C@@]12C [Ciclesonide]
Conditions	phenotypic distance	surviving fraction
E13 [1], 4.1 nM	–	0.929
E13 [1], 12.3 nM	–	0.899
E13 [1], 37 nM	–	0.833
E13 [1], 111.1 nM	–	0.908
E13 [1], 333.3 nM	–	0.889
E13 [1], 1000 nM	–	0.796
E13 [1], 3000 nM	–	0.233
E13 [8], 4.1 nM	0.991	–
E13 [8], 12.3 nM	0.745	–
E13 [8], 37 nM	1.05	–
E13 [8], 111.1 nM	1.04	–
E13 [8], 333.3 nM	0.74	–
E13 [8], 1000 nM	1.02	–
E13 [8], 3000 nM	3.25	–
E21 [2], 4.1 nM	–	1.24
E21 [2], 12.3 nM	–	1.23
E21 [2], 37 nM	–	1.07
E21 [2], 111.1 nM	–	1.17
E21 [2], 333.3 nM	–	1.19
E21 [2], 1000 nM	–	1.24
E21 [2], 3000 nM	–	0.893
E21 [9], 4.1 nM	1.83	–
E21 [9], 12.3 nM	2.04	–
E21 [9], 37 nM	1.74	–
E21 [9], 111.1 nM	2.02	–
E21 [9], 333.3 nM	2.07	–
E21 [9], 1000 nM	1.89	–
E21 [9], 3000 nM	2.4	–
E28 [3], 4.1 nM	–	1.11
E28 [3], 12.3 nM	–	1
E28 [3], 37 nM	–	1.26
E28 [3], 111.1 nM	–	1.07
E28 [3], 333.3 nM	–	0.894
E28 [3], 1000 nM	–	1.05
E28 [3], 3000 nM	–	0.615
E28 [10], 4.1 nM	1.16	–
E28 [10], 12.3 nM	0.863	–
E28 [10], 37 nM	1.07	–
E28 [10], 111.1 nM	0.708	–
E28 [10], 333.3 nM	1	–
E28 [10], 1000 nM	0.827	–
E28 [10], 3000 nM	2.3	–
E31 [4], 4.1 nM	–	1.24
E31 [4], 12.3 nM	–	1.11
E31 [4], 37 nM	–	1.33
E31 [4], 111.1 nM	–	1.47
E31 [4], 333.3 nM	–	1.25
E31 [4], 1000 nM	–	1.27
E31 [4], 3000 nM	–	0.766
E31 [11], 4.1 nM	2.4	–
E31 [11], 12.3 nM	2.62	–
E31 [11], 37 nM	3	–
E31 [11], 111.1 nM	3.03	–
E31 [11], 333.3 nM	3.06	–
E31 [11], 1000 nM	3.27	–
E31 [11], 3000 nM	2.27	–
E34 [5], 4.1 nM	–	1.04
E34 [5], 12.3 nM	–	0.897
E34 [5], 37 nM	–	1.13
E34 [5], 111.1 nM	–	1.02
E34 [5], 333.3 nM	–	1.08
E34 [5], 1000 nM	–	1.06
E34 [5], 3000 nM	–	0.589
E34 [12], 4.1 nM	0.88	–
E34 [12], 12.3 nM	0.851	–
E34 [12], 37 nM	1.45	–
E34 [12], 111.1 nM	1.77	–
E34 [12], 333.3 nM	1.12	–
E34 [12], 1000 nM	0.771	–
E34 [12], 3000 nM	1.4	–
E57 [6], 4.1 nM	–	1.08
E57 [6], 12.3 nM	–	1.18
E57 [6], 37 nM	–	1.1
E57 [6], 111.1 nM	–	1.32
E57 [6], 333.3 nM	–	1.16
E57 [6], 1000 nM	–	1.19
E57 [6], 3000 nM	–	0.756
E57 [13], 4.1 nM	1.77	–
E57 [13], 12.3 nM	2.02	–
E57 [13], 37 nM	2.36	–
E57 [13], 111.1 nM	2.51	–
E57 [13], 333.3 nM	2.31	–
E57 [13], 1000 nM	2.44	–
E57 [13], 3000 nM	2.49	–
FT3469 [7], 4.1 nM	–	1.1
FT3469 [7], 12.3 nM	–	1.38
FT3469 [7], 37 nM	–	1.15
FT3469 [7], 111.1 nM	–	1.04
FT3469 [7], 333.3 nM	–	1.03
FT3469 [7], 1000 nM	–	1.1
FT3469 [7], 3000 nM	–	0.803
FT3469 [14], 4.1 nM	1.45	–
FT3469 [14], 12.3 nM	1.86	–
FT3469 [14], 37 nM	1.15	–
FT3469 [14], 111.1 nM	1.37	–
FT3469 [14], 333.3 nM	1.4	–
FT3469 [14], 1000 nM	0.997	–
FT3469 [14], 3000 nM	0.762	–

O=C1CCc2cc(OCCCCc3nnnn3C3CCCCC3)ccc2N1 [Cilostazol]
Conditions	phenotypic distance	surviving fraction
E13 [1], 4.1 nM	–	0.989
E13 [1], 12.3 nM	–	1.04
E13 [1], 37 nM	–	1.01
E13 [1], 111.1 nM	–	0.931
E13 [1], 333.3 nM	–	0.933
E13 [1], 1000 nM	–	0.98
E13 [1], 3000 nM	–	0.897
E13 [8], 4.1 nM	0.5	–
E13 [8], 12.3 nM	0.664	–
E13 [8], 37 nM	1.06	–
E13 [8], 111.1 nM	0.612	–
E13 [8], 333.3 nM	0.287	–
E13 [8], 1000 nM	0.5	–
E13 [8], 3000 nM	0.553	–
E21 [2], 4.1 nM	–	0.933
E21 [2], 12.3 nM	–	1.09
E21 [2], 37 nM	–	1.03
E21 [2], 111.1 nM	–	1.04
E21 [2], 333.3 nM	–	0.973
E21 [2], 1000 nM	–	0.949
E21 [2], 3000 nM	–	0.934
E21 [9], 4.1 nM	0.676	–
E21 [9], 12.3 nM	1.17	–
E21 [9], 37 nM	1.02	–
E21 [9], 111.1 nM	1.46	–
E21 [9], 333.3 nM	0.998	–
E21 [9], 1000 nM	1.13	–
E21 [9], 3000 nM	1.15	–
E28 [3], 4.1 nM	–	0.916
E28 [3], 12.3 nM	–	1.13
E28 [3], 37 nM	–	0.892
E28 [3], 111.1 nM	–	1.2
E28 [3], 333.3 nM	–	1.01
E28 [3], 1000 nM	–	1.12
E28 [3], 3000 nM	–	0.914
E28 [10], 4.1 nM	0.648	–
E28 [10], 12.3 nM	0.777	–
E28 [10], 37 nM	0.65	–
E28 [10], 111.1 nM	1.01	–
E28 [10], 333.3 nM	1.82	–
E28 [10], 1000 nM	0.846	–
E28 [10], 3000 nM	0.458	–
E31 [4], 4.1 nM	–	0.919
E31 [4], 12.3 nM	–	1.04
E31 [4], 37 nM	–	0.905
E31 [4], 111.1 nM	–	0.98
E31 [4], 333.3 nM	–	0.963
E31 [4], 1000 nM	–	0.832
E31 [4], 3000 nM	–	0.832
E31 [11], 4.1 nM	0.904	–
E31 [11], 12.3 nM	0.814	–
E31 [11], 37 nM	0.863	–
E31 [11], 111.1 nM	0.598	–
E31 [11], 333.3 nM	0.893	–
E31 [11], 1000 nM	0.881	–
E31 [11], 3000 nM	0.868	–
E34 [5], 4.1 nM	–	0.904
E34 [5], 12.3 nM	–	1.1
E34 [5], 37 nM	–	0.938
E34 [5], 111.1 nM	–	0.937
E34 [5], 333.3 nM	–	1.05
E34 [5], 1000 nM	–	1.04
E34 [5], 3000 nM	–	0.959
E34 [12], 4.1 nM	0.293	–
E34 [12], 12.3 nM	0.701	–
E34 [12], 37 nM	0.573	–
E34 [12], 111.1 nM	1.28	–
E34 [12], 333.3 nM	0.55	–
E34 [12], 1000 nM	0.46	–
E34 [12], 3000 nM	0.733	–
E57 [6], 4.1 nM	–	0.991
E57 [6], 12.3 nM	–	0.969
E57 [6], 37 nM	–	0.975
E57 [6], 111.1 nM	–	1.04
E57 [6], 333.3 nM	–	0.91
E57 [6], 1000 nM	–	0.839
E57 [6], 3000 nM	–	0.817
E57 [13], 4.1 nM	0.508	–
E57 [13], 12.3 nM	0.665	–
E57 [13], 37 nM	0.802	–
E57 [13], 111.1 nM	0.893	–
E57 [13], 333.3 nM	1.16	–
E57 [13], 1000 nM	1.49	–
E57 [13], 3000 nM	1.42	–
FT3469 [7], 4.1 nM	–	1.03
FT3469 [7], 12.3 nM	–	1.03
FT3469 [7], 37 nM	–	0.96
FT3469 [7], 111.1 nM	–	1.02
FT3469 [7], 333.3 nM	–	0.949
FT3469 [7], 1000 nM	–	1.16
FT3469 [7], 3000 nM	–	0.891
FT3469 [14], 4.1 nM	0.483	–
FT3469 [14], 12.3 nM	0.448	–
FT3469 [14], 37 nM	0.352	–
FT3469 [14], 111.1 nM	0.643	–
FT3469 [14], 333.3 nM	3.23	–
FT3469 [14], 1000 nM	0.826	–
FT3469 [14], 3000 nM	0.541	–

Reference: the supplement of paper PMC13207355
